Read-outs that look alike come from different tables or passages of the source. Marks after values point to notes of the source that are not given here.
Tests used:
[1] = Example 1 follow-up study: radioactivity and metabolites in blood
Protocol: (§1) The patients received [^3H]-labeled drug applied directly on the affected breasts at specified intervals ranging from 12 hours to 7 days before surgery to excise diseased tissue. Breast tissue from three regions: the tumor, tissue immediately surrounding the tumor, and normal tissue, was excised and immediately frozen in liquid nitrogen. Additionally, plasma and urine samples were obtained at scheduled intervals and frozen until analysis.

clinical = assay: clinical; design: species or system women; settings: in vivo
Protocol: At the end of a menstrual cycle, each patient received a single dose, after which serial blood samples were collected at 0, 0.5, 1, 1.5, 2, 3, 4, 6, 12, 18, 24, 36, 48, and 72 hours.

[2] = in vivo
Protocol: Each participant applied the gel daily for the duration of two menstrual cycles.
On the first day of the following menstruation, treatment, which consisted of daily application of the gel over two menstrual cycles, began. Blood samples were collected 24 hours following the morning application of gel on days 7, 20 and 25 of the first and second cycles. On the last day of administration, day 25 of the second menstrual cycle, serial blood samples were collected prior to application and at 0.5, 1, 1.5, 2, 3, 4, 6, 12, 18, 24, 36, 48, and 72 hours after application of the gel.

[3] = in vivo; remark: listed apart in the source
Protocol: as §1

[4] = in vivo; remark: listed apart in the source
Protocol: as §1

[5] = in vivo; remark: listed apart in the source
Protocol: as §1

estrone sulphatase = target: T1, estrone sulphatase (Homo sapiens, UniProt P08842); settings: mammary cancer cell lines; cited from earlier work
T1 construct: estrone sulphatase activity in mammary cancer cell lines; endogenous in cells
T1 sequence (P08842 22-583): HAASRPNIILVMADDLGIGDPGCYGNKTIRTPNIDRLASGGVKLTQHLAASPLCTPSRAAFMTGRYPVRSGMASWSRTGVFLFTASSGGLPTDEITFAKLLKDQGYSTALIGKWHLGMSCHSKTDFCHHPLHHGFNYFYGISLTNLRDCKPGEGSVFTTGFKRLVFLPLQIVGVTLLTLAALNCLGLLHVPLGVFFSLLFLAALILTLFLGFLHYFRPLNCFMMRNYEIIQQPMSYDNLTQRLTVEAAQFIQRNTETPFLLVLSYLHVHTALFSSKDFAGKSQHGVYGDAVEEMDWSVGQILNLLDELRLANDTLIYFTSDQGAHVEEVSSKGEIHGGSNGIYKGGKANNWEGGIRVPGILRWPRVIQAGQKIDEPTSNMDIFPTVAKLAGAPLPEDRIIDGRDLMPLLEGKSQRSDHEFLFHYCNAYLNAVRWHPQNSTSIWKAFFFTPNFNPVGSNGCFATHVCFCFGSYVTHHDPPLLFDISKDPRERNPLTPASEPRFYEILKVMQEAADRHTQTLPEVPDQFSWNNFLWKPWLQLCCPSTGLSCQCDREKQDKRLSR

[6] = percutaneous dose of 1 mg/breast/day; cited from earlier work
[7] = Group 2: 4-OHT gel (20 mg/100 g) 0.5 mg/day, both breasts, 3-4 weeks; n=5; cited from earlier work
estrogen receptors = settings: more affinity than tamoxifen; cited from earlier work
rat liver = settings: in vivo; cited from earlier work
[8] = cited from earlier work
[9] = tested on: p53(-) normal human mammary epithelial cells; settings: cited from earlier work
[10] = cited from earlier work; remark: listed apart in the source
[11] = Example 1 follow-up study: radioactivity and metabolites in breast tissue after percutaneous application; settings: for % Metabolites in Breast Tissue: breast tumor tissue
Protocol: as §1

[12] = tested on: normal human epithelial breast cells; settings: more than Z-tamoxifen; cited from earlier work
[13] = oral tamoxifen group, 20 mg/day

With `CCC(=C(c1ccc(O)cc1)c1ccc(OCCNC)cc1)c1ccccc1` [N-Desmethyl-4-Hydroxy Tamoxifen] the “% of radioactivity in blood represented by” value ([1]; 24 hours after percutaneous administration of [3H]-4-hydroxy tamoxifen) was 18%.

In the case of `CCC(=C(c1ccc(O)cc1)c1ccc(OCCN(C)C)cc1)c1ccccc1` [4-hydroxy tamoxifen, 1-[4-(2-N-dimethylaminoethoxy)phenyl]-1-(4-hydroxyphenyl)-2-phenylbut-1-ene], the “t1/2 (Range)” value (clinical; human, topical or ocular) is reported as “(49 - 101) hr”, the half-life (clinical; human, topical or ocular, t1/2 (Range)) is reported as 58 to 118 h and the “patients with detectable plasma concentrations (>5 pg/mL)” value (clinical) is reported as 6 of 12. For the same molecule, the “laboratory or clinical evidence of systemic effects” value [2] was “no detectable”, the “distribution within breast tissue” value [3] was “concentrated predominantly in the cytosolic and nuclear fractions of breast tissue” and the “metabolism in intracellular sites of breast tissue” value [3] was “remained unmetabolized except for limited isomerization from the Z to the E form”. For the same molecule, the “retention in the breast” value [3] was “approximately 4 days”, the “% of radioactivity in blood represented by” value [4] was 68% and the peak urinary elimination [5] was “later time”. For the same molecule, the “inhibitory effect on estrone sulphatase activity” value (estrone sulphatase) was “significant inhibitory effect”, the “4-hydroxy tamoxifen concentration in breast tissue exceeds normal estradiol concentrations in breast tissue by a factor of” value [6] was 4 and the “Mean ± SD 4-hydroxy tamoxifen (Range), Plasma Concentrations, Day Pre-Surgery” value [7] was 0 (0 - 0)^a pg/mL. The “affinity for estrogen receptors” value (estrogen receptors) was 100 fold and the rat liver carcinogen (rat liver) was “not”.

For `CC/C(=C(\c1ccccc1)c1ccc(OCCN(C)C)cc1)c1ccccc1` [tamoxifen], the “inhibitory effect on estrone sulphatase activity” value (estrone sulphatase) is listed as “little or no effect”, the “decrease of risk of benign breast disease” value (“decrease” for short) ([8]; cyst) is listed as 34% and the “decrease” value ([8]; duct ectasia) is listed as 28%. For the same molecule, the “decrease” value ([8]; fibrocystic disease) was 33%, the “decrease” value ([8]; hyperplasia) was 40% and the “reduces the risk of developing benign breast disease” value ([8]; overall) was 28%. For the same molecule, the “reduction of the need for breast biopsies” value ([8]; women under 50) was 41%, the rat liver carcinogen (rat liver) was “potent rat liver carcinogen” and the initiates apoptosis [9] was “initiates apoptosis”. The “side effects reported by one person” value ([10]; Group 2 (0.5 mg/day gel): seventh day of treatment, Group 1 (oral tamoxifen): fifth day of treatment) was “hot flashes and mild vaginitis”, the “anti-thrombin III and fibrinogen, pre- versus post treatment” value [10, 13] was “statistically significant decrease” and the “platelet and lymphocyte counts, pre- versus post treatment” value [10, 13] was “statistically significant increase”. The “% Metabolites in Breast Tissue” value ([11]; Day 4 after percutaneous administration of Z-[3H]-4-hydroxy tamoxifen to the affected breast) was less than 1%, the “% Metabolites in Breast Tissue” value ([11]; Day 7 after percutaneous administration of Z-[3H]-4-hydroxy tamoxifen to the affected breast) was 2% and the “retention in the breast” value ([11]; percutaneous application of [3H]-labeled drug) was “shorter and far weaker”.

In the case of `CC/C(=C(\c1ccccc1)c1ccc(OCCN(C)C)cc1)c1ccccc1` [[^3H]-tamoxifen, reference compound], the “plateau of radioactivity in blood” value ([1]; percutaneous application) is reported as 2 days.

In the case of `CC/C(=C(\c1ccc(O)cc1)c1ccc(OCCN(C)C)cc1)c1ccccc1` [Z-4-hydroxy tamoxifen], the “inhibits the growth in culture of normal human epithelial breast cells” value [12] is listed as 100 fold.

From patent publication EP1579856A1 (LABORATOIRES BESINS INTERNATIONAL, priority 2004, dated 2005)
